“Also recorded” adds a separate entry of the source. Read-outs that look alike come from different tables or passages of the source. Blank lines part the entries; values can stand above or below the molecule they belong to.
Experiments:
Erb4 = Erb4 (Homo sapiens, UniProt Q15303); experiment: Kinase activity assay (LabChip platform, Nanosyn)
[1] = test system: HER2 and HER4 activation in BT-474 cells; experiment: HER2 and HER4 activation assessed by phosphorylation of downstream targets (FIG. 16); type: cell-based; conditions: BT-474, ibrutinib compared to AVL-292
BTK = target: T1, BTK (Homo sapiens, UniProt Q06187); experiment: Covalent binding to Btk, DoHH2 cells with PCI-33380 (FIG. 24); conditions: inhibitors 1 h, then PCI-33380 2 uM 30 min
T1 construct: endogenous in cells; host or cells: DoHH2
T1 sequence (Q06187 whole entry): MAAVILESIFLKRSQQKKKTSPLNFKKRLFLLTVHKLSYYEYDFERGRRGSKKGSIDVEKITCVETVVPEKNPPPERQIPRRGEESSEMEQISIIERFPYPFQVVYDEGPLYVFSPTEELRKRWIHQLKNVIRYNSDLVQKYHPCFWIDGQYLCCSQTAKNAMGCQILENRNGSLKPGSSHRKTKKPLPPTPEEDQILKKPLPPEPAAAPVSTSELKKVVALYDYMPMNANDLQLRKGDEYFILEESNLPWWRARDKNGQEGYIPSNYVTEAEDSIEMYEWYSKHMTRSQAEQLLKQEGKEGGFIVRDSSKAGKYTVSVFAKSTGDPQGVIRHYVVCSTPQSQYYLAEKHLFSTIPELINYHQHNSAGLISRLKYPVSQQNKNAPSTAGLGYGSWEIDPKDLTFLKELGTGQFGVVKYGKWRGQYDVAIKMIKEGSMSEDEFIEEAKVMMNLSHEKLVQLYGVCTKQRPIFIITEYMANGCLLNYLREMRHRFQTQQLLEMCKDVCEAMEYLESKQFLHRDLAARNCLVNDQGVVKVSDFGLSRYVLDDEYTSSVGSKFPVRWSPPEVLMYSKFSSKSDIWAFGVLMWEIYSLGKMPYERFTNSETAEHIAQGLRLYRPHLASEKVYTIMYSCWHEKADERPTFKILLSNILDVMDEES

[2] = test system: ErbB kinases and down-stream signaling pathways; experiment: Washout experiment, immunoblotting of total and phosphorylated proteins (FIG. 10); type: cell-based; conditions: BT474 and SKBR-3, 0.1 or 0.5 μM, various times, then cultured additional 2 hours
Method: Cells were washed once with cold PBS and lysed in 1× sample buffer (Invitrogen). The whole cell lysate was boiled, sonicated, and then loaded onto a 4-15% gradient SDS-PAGE gel. The proteins were transferred to PVDF membrane. After probing with antibodies, the detection was conducted using an Odyssey […] (Li-Cor). Paired mouse and rabbit antibodies were used to probe the total and corresponding phosphorylated proteins.

ErbB kinases = experiment: Separate dialysis experiment on kinase inhibition (data not shown); type: biochemical
TEC = TEC (Homo sapiens, UniProt P42680); experiment: Kinase activity assay (LabChip platform, Nanosyn); type: biochemical; conditions: recombinant enzyme 5 nM, substrate 1 μM
ErB2 = ErB2 (Homo sapiens, UniProt P04626); experiment: Kinase activity assay (LabChip platform, Nanosyn); conditions: recombinant enzyme 5 nM, substrate 1 μM
Chain of ErB2 (P04626 23-1255): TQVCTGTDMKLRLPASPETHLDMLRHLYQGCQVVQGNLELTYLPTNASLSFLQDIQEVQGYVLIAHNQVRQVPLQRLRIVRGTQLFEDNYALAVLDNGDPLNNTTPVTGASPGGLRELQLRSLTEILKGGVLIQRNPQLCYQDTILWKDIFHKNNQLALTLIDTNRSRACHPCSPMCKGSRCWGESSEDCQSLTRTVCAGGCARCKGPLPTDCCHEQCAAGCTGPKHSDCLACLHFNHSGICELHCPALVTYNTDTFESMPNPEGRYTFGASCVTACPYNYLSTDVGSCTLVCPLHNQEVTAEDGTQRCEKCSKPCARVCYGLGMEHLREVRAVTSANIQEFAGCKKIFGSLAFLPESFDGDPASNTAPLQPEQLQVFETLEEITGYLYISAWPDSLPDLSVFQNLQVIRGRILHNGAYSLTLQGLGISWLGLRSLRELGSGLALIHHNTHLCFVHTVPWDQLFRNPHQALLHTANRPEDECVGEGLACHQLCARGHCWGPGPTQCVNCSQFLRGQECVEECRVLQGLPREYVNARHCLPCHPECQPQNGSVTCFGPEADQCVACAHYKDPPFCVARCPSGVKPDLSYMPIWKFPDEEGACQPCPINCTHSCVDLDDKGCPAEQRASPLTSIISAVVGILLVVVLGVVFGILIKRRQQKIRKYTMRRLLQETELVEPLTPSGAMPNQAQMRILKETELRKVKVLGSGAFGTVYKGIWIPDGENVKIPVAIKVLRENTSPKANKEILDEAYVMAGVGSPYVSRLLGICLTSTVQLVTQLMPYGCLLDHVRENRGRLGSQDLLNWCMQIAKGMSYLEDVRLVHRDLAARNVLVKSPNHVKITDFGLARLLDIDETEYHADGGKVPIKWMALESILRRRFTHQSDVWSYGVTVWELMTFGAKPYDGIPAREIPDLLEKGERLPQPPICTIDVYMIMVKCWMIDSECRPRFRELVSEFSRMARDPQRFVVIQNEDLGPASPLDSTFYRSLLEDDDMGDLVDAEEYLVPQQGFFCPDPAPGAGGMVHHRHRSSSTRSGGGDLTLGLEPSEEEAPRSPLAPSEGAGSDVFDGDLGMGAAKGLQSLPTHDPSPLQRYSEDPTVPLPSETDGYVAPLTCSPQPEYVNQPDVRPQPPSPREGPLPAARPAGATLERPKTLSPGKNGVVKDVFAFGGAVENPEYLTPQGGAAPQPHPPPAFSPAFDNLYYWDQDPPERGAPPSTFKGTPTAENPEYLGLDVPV

BT-474 cells [3] = experiment: Cell growth inhibition wash out assay; type: cell-based; conditions: BT-474, 1 hour exposure (0.1, 0.25, 0.5 μM), 6 days culture
UACC-893 cells = experiment: Cell proliferation assay with alamar blue; type: cell-based; conditions: UACC-893, 3 days continuous exposure
SK-BR3 cells [4] = experiment: Cell growth inhibition wash out assay; type: cell-based; conditions: SK-BR3, 1 hour exposure (0.1, 0.25, 0.5 μM), 6 days culture
BT-474 cells [5] = experiment: Tumorsphere culture; type: cell-based; conditions: BT-474, 1 hour treatment, wash out, seven days culture
[6] = test system: EGFR, HER2, HER4 and downstream targets (MEK, Akt signaling pathway); experiment: Signaling pathway inhibition (FIGS. 19-21); type: cell-based; conditions: for inhibition of MEK and Akt signaling pathway compared with EGFR and HER2 signaling pathway: FIG. 21
EGFR = EGFR (Homo sapiens, UniProt P00533); experiment: EGFR dialysis assay; type: biochemical; conditions: 10 nM or 100 nM, 1 h pre-incubation, 24 h dialysis
Chain of EGFR (P00533 25-1210): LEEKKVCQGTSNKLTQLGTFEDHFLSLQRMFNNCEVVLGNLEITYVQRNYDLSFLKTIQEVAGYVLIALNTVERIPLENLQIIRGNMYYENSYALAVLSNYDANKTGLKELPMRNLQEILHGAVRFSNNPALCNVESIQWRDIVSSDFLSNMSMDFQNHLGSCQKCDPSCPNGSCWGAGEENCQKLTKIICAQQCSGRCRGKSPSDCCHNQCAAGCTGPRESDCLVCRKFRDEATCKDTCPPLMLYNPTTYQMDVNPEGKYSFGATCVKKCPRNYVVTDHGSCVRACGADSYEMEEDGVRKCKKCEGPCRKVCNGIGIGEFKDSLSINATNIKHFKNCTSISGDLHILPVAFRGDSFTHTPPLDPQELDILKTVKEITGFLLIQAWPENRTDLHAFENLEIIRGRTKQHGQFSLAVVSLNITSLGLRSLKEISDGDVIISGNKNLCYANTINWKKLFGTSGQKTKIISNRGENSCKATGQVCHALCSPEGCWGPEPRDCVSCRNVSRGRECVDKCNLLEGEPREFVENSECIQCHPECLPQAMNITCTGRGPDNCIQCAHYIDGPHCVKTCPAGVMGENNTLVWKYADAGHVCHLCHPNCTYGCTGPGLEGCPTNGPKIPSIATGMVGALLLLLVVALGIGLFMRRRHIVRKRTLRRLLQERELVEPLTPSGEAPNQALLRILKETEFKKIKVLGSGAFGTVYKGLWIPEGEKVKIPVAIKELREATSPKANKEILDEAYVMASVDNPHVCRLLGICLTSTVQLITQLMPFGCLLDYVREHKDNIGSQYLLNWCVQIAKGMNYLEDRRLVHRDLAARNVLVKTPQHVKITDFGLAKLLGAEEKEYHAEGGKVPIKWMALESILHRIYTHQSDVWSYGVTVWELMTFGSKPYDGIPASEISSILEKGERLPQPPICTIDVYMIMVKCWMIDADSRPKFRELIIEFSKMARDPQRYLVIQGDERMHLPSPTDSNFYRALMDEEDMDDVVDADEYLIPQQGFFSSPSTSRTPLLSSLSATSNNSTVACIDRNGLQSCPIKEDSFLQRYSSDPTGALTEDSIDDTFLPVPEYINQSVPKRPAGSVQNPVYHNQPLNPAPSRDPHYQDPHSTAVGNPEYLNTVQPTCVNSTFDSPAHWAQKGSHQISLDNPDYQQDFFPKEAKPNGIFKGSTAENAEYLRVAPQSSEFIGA
Method: Control samples included: DMSO+5 nM EGFR dialyzed in the identical manner. […] Initial velocity was determined in the samples.

BT-474 cells [7] = experiment: Cell cycle analysis; type: cell-based; conditions: BT-474, 1 h exposure, measured at 24 h
TXK = TXK (Homo sapiens, UniProt P42681); experiment: Kinase activity assay (LabChip platform, Nanosyn); type: biochemical; conditions: recombinant enzyme 5 nM, substrate 1 μM
MDA-MB-453 xenograft = experiment: Mouse MDA-MB-453 xenograft; type: in vivo
HER signaling pathway = experiment: One hour treatment followed by washout, signaling pathways (FIG. 33); type: cell-based
HER4 = HER4 (Homo sapiens, UniProt Q15303); experiment: HER4 dialysis assay; type: biochemical; conditions: 10 nM or 100 nM, 1 h pre-incubation, 24 h dialysis
Chain of HER4 (Q15303 26-1292 isoform Q15303-3 limits assumed): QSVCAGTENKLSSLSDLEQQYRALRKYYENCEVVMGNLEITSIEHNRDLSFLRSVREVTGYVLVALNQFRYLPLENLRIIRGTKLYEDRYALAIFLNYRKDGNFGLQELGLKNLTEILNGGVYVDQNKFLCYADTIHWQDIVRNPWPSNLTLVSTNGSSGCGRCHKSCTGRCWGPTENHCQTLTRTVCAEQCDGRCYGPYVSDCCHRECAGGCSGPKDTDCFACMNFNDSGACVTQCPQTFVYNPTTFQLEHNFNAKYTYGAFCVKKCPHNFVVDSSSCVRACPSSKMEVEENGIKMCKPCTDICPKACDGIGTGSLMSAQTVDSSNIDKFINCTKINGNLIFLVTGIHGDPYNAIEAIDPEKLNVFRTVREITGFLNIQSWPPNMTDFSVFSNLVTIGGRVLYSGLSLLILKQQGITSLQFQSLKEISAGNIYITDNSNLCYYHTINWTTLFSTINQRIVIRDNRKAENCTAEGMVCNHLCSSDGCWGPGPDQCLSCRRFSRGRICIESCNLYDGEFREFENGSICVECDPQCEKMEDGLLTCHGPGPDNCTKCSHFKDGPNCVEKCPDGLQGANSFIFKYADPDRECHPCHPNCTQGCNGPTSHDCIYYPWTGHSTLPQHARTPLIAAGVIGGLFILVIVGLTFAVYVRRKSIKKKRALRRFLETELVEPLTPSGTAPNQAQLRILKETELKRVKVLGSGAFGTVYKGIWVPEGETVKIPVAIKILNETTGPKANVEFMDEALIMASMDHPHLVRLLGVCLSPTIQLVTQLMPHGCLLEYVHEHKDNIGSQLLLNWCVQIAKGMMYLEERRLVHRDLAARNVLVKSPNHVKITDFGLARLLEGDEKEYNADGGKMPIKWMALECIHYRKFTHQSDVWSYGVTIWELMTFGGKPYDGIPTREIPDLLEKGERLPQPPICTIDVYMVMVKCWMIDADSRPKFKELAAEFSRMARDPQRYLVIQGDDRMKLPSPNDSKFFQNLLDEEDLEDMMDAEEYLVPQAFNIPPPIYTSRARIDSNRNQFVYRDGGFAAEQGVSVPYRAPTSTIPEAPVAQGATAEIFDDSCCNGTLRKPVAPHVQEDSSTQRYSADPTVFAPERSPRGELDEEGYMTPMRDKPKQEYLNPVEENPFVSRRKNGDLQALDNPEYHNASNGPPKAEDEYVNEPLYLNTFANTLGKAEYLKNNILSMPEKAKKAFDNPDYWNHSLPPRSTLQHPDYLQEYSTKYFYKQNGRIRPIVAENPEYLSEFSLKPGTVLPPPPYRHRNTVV

BT-474 cells [8] = experiment: Cell proliferation assay with alamar blue; conditions: BT-474, 3 days continuous exposure
MDA-MB-453 cells [9] = experiment: Cell proliferation assay with alamar blue
[10] = test system: aldehyde dehydrogenase (ALDH) in BT-474 cells; experiment: Aldefluor assay
MDA-MB-453 cells [11] = experiment: Resistance induced by heregulin; type: cell-based; conditions: MDA-MB-453, higher concentration of ibrutinib
BT-474 cells [12] = experiment: Resistance induced by heregulin; type: cell-based; conditions: BT-474, higher concentration of ibrutinib
[13] = test system: Btk signaling pathways in Mino cells; experiment: Signaling pathways in B cells (FIG. 23); type: cell-based
EGFR (ErbB1) = EGFR (ErbB1) (Homo sapiens, UniProt P00533); experiment: Kinase activity assay (LabChip platform, Nanosyn); conditions: recombinant enzyme 5 nM, substrate 1 μM
BT-474 cells [14] = experiment: Apoptosis assay (annexin-V / sub G0); type: cell-based
SK-BR3 cells [15] = experiment: Cell cycle analysis; type: cell-based; conditions: SK-BR3, 1 h exposure, measured at 24 h
SK-BR3 cells [16] = experiment: Cell proliferation assay with alamar blue; conditions: SK-BR3, 3 days continuous exposure
BLK = BLK (Homo sapiens, UniProt P51451); experiment: Kinase activity assay (LabChip platform, Nanosyn); type: biochemical; conditions: recombinant enzyme 5 nM, substrate 1 μM
LCK = LCK (Homo sapiens, UniProt P06239); experiment: LCK dialysis assay; type: biochemical; conditions: 10 nM or 100 nM, 1 h pre-incubation, 24 h dialysis
Chain of LCK (P06239 whole entry, species assumed): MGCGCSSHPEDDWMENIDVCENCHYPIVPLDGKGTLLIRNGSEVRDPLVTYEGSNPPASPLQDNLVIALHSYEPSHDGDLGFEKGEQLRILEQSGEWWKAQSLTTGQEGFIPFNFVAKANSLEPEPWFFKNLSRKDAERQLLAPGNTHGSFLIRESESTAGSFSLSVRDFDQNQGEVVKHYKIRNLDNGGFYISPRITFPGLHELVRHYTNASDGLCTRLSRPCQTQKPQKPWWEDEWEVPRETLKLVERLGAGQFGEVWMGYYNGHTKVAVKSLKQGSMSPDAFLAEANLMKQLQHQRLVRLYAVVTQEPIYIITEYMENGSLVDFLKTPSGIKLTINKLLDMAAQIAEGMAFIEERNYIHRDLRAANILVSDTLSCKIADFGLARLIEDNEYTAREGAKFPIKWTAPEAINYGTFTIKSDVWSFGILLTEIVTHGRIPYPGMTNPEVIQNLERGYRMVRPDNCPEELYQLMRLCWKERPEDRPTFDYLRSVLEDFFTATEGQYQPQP
Method: Control samples included: DMSO+5 nM LCK dialyzed in the identical manner. […] Initial velocity was determined in the samples.

ITK = ITK (Homo sapiens, UniProt Q08881); experiment: Kinase activity assay (LabChip platform, Nanosyn); type: biochemical; conditions: recombinant enzyme 5 nM, substrate 1 μM
JAK3 = JAK3 (Homo sapiens, UniProt P52333); experiment: Kinase activity assay (LabChip platform, Nanosyn); type: biochemical; conditions: recombinant enzyme 5 nM, substrate 1 μM

Chain of Erb4 (Q15303 26-1292 isoform Q15303-3 limits assumed): as the sequence (Q15303 26-1292 isoform Q15303-3 limits assumed) above

SMILES: COc1cc2ncnc(Nc3ccc(F)c(Cl)c3)c2cc1OCCCN1CCOCC1 [gefitinib, reference compound]
HER4 inhibitory activity compared to ibrutinib (Erb4; stated without source): lower HER2/4 inhibitory activity

SMILES: C=CC(=O)Nc1cccc(Nc2nc(Nc3ccc(OCCOC)cc3)ncc2F)c1 [AVL-292, reference compound]
inhibition of HER2 and HER4 activation (phosphorylation of downstream targets, such as AKT) [1]: only ibrutinib inhibited

SMILES: CCOc1cc2ncc(C#N)c(Nc3ccc(OCc4ccccn4)c(Cl)c3)c2cc1NC(=O)/C=C/CN(C)C [neratinib]
covalent binding to Btk (BTK): did not

Now from value to molecule, other results behind:

covalent binding to Btk (BTK): did not
SMILES: CS(=O)(=O)CCNCc1ccc(-c2ccc3ncnc(Nc4ccc(OCc5cccc(F)c5)c(Cl)c4)c3c2)o1 [lapatinib]

kinase inhibition after dialysis (ErbB kinases): dialysis resistant
inhibition of TEC (TEC): able to inhibit
IC50 toward EGFR compared with HER2 and HER4 ([6]; FIG. 19B): higher IC50
reversibility of EGFR inhibition after dialysis (EGFR): irreversible inhibition
reversibility of EGFR inhibition after dialysis (EGFR; listed as Ibrutinib): irreversibly inhibits
inhibition of TXK (TXK): able to inhibit
reversibility of HER4 inhibition after dialysis (HER4): irreversible inhibition
reversibility of HER4 inhibition after dialysis (HER4; listed as Ibrutinib): irreversibly inhibits
inhibition of BLK (BLK): able to inhibit
reversibility of LCK inhibition after dialysis (LCK): reversible inhibition
reversibility of LCK inhibition after dialysis (LCK; listed as Ibrutinib): reversibly inhibits
inhibition of ITK (ITK): able to inhibit
inhibition of JAK3 (JAK3): able to inhibit
SMILES: C=CC(=O)N1CCC[C@@H](n2nc(-c3ccc(Oc4ccccc4)cc3)c3c(N)ncnc32)C1 [ibrutinib, (R)-1-(3-(4-amino-3-(4-phenoxyphenyl)-1H-pyrazolo[3,4-d]pyrimidin-1-yl)piperidin-1-yl)prop-2-en-1-one]
inhibition of HER2 and HER4 activation (phosphorylation of downstream targets, such as AKT) [1]: only ibrutinib inhibited HER2 and HER4 activation
inhibition of ErbB kinases and down-stream signaling pathways after washout [2]: persisted after ibrutinib washout, and was time and concentration dependent
inhibition of ErB2 (ErB2): able to inhibit; also recorded: effective in inhibiting
growth inhibitory effect after wash out (BT-474 cells [3]): sustained and was dose dependent
growth inhibitory effect (UACC-893 cells): sensitive to the growth inhibitory effect
growth inhibitory effect after wash out (SK-BR3 cells [4]): sustained and was dose dependent
tumorsphere growth (size) (BT-474 cells [5]): inhibited tumorsphere growth
tumorsphere number (BT-474 cells [5]): without affecting tumorsphere number
inhibition of MEK and Akt signaling pathway compared with EGFR and HER2 signaling pathway [6]: more potent inhibitor of MEK and Akt pathways than the EGFR and HER2 pathways
inhibition of MEK and Akt signaling pathway compared with EGFR and HER2 signaling pathway ([6]; listed as Ibrutinib): potent inhibitor of the MEK and Akt signaling pathway than of the EGFR and HER2 signaling pathway
cell cycle effect (BT-474 cells [7]): G1 arrest
solid tumor growth (tumor volume) (MDA-MB-453 xenograft): inhibited solid tumor growth
inhibitory effect on HER signaling pathway after washout (HER signaling pathway; day 6): lasting inhibitory effect even after day 6
inhibitory effect on HER signaling pathway after washout (HER signaling pathway; day 6, listed as Ibrutinib): long-lasting inhibitory effect even after day 6
growth inhibitory effect (BT-474 cells [8]): sensitive to the growth inhibitory effect; also recorded: confirmed ibrutinib inhibitory activity
growth inhibitory effect (MDA-MB-453 cells [9]; MDA-MB-453, 3 days continuous exposure): sensitive to the growth inhibitory effect; also recorded: confirmed ibrutinib inhibitory activity
inhibition of cell growth compared to gefitinib (MDA-MB-453 cells [9]; MDA-MB-453, fluorescence-based assay): more potent than gefitinib
putative stem-like subpopulation of breast cancer cells ([10]; BT-474, one hour or continuous treatment): decreased
aldehyde dehydrogenase activity ([10]; BT-474, short exposures to high concentrations or continuous exposure to low concentration): decreased aldehyde dehydrogenase activity
overcoming resistance induced by heregulin (MDA-MB-453 cells [11]): able to overcome resistance induced by heregulin
overcoming resistance induced by heregulin (BT-474 cells [12]): able to overcome resistance induced by heregulin
inhibitory effect on Btk signaling pathways in B cells [13]: selective inhibitory effect
inhibitory effect on Btk signaling pathways in B cells ([13]; listed as Ibrutinib): selectively inhibits
inhibition of EGFR (ErbB1) (EGFR (ErbB1)): able to inhibit; also recorded: effective in inhibiting
apoptosis (annexin-V positivity or sub G0) (BT-474 cells [14]; BT-474, continuous treatment 3-day, with or without caspase inhibitor Q-VD-OPH): dramatic apoptosis which was caspase-dependent
apoptosis (cells in sub G0) (BT-474 cells [14]; BT-474, one hour treatment, 6 days after the exposure): low level of apoptosis
cell cycle effect (SK-BR3 cells [15]): G1 arrest
growth inhibitory effect (SK-BR3 cells [16]): sensitive to the growth inhibitory effect; also recorded: confirmed ibrutinib inhibitory activity
inhibition of Erb4 (Erb4; recombinant enzyme 5 nM, substrate 1 μM): able to inhibit; also recorded: effective in inhibiting

covalent binding to Btk (BTK): did not
SMILES: COc1cc2ncnc(Nc3ccc(F)c(Cl)c3)c2cc1NC(=O)/C=C/CN1CCCCC1 [dacomitinib, reference compound]
inhibition of EGFR and downstream targets ([6]; FIG. 20): less effective

— patent US10016434B2, “Methods for the treatment of HER2 amplified cancer” (Pharmacyclics LLC, priority 2013, dated 2018)
